Source: patent US9382294B2, “Broad spectrum antibiotic compounds and use thereof” (Los Alamos National Security, LLC, priority 2013, dated 2016)
Values after ≈ are worked out from the molar mass of the structure shown. Where a name gives a salt, the structure may show the parent alone. Read-outs that look alike come from different tables or passages of the source.

Assays:
C. difficile ATCC 700057 = assay: MIC broth dilution assay (Table 2); type: cell-based, Clostridium difficile; details: Clostridioides difficile
Method: (§1) Stocks of test compounds and standards were diluted 1:100 to provide working stocks in each growth medium. For P. aeruginosa, S. enterica and S. aureus, eleven serial, one-half dilutions of the compounds and standards were prepared in 96-well polypropylene dilution blocks in cation-adjusted Mueller Hinton broth (CAMHB). The dilutions were transferred to 96-well assay plates. […] Bacterial suspensions were prepared and added to each well at a concentration of approximately 5×10^5 colony-forming-units per milliliter. […] At the completion of incubation the wells of each plate were evaluated visually for the presence of bacterial growth. The MIC was the concentration at which there was no growth. MICs against H. influenzae, S. pneumoniae and C. difficile were determined similarly, but dilutions were prepared directly in the 96-well assay plates and MIC parameters were as indicated below (Table 1). [table]

[1] = radio-HPLC of C. thermocellum culture fed 14C-labelled amino acids (water solubility of metabolite); type: physicochemical; details: no new peak in radio-HPLC of culture
Method: C. thermocellum was grown anaerobically in cellulose-containing medium. ^14C-labelled amino acids (^14C-L-Asp, ^14C-L-Leu and ^14C-L-Ile) were added to the culture media and radio-HPLC was performed. […] The orange suspension was centrifuged, the liquid layer separated from the cells and the DMSO was removed under reduced pressure. The final yield from this process was 14.7 mg.

HeLa cells = assay: in vitro cell toxicology assay; type: cell-based, human
Method: (§2) In vitro cell toxicology assays were performed to evaluate the effect of Compound #1 on human cells. Compound #1, dissolved in DMSO, was added to vital cultures of HeLa cells and peripheral blood mononuclear cells (PMBC) one day after the cell cultures were started. For each cell line, pure DMSO (control #1), no DMSO (control #2) and Compound #1 in one times (T1-5 nM), five times (T5-25 nM) and ten times (T10-50 nM) of the bacteria-toxic concentration was added to the cell cultures for two sets each. All ten culture flasks per cell line (2×: T1, T5, T10, […]#2) were incubated under identical conditions and simple cell counts were performed on days two, four and six while replacing the cell culture medium to maintain the concentration of Compound #1.

[2] = system: peripheral blood mononuclear cells (PMBC); assay: in vitro cell toxicology assay; type: cell-based, human; details: 5, 25, 50 nM
Method: as §2

[3] = Maximum Tolerated Dose (MTD) study; type: in vivo; details: CD-1 mice; subcutaneous 20, 40 or 80 mg/kg; observed 1 hour, 24 hours and 48 hours
Method: MTD studies were performed for Compound #1, Compound #2 and Compound #3. CD-1 mice, 6-8 weeks of age, were used for these studies. Groups of three mice were injected subcutaneously with 20 mg/kg, 40 mg/kg or 80 mg/kg of Compound #1, Compound #2 or Compound #3 Animals were observed 1 hour, 24 hours and 48 hours after administration of compound.

[4] = system: Acinetobacter baumannii (ATCC 17904); assay: bacterial growth inhibition assay (cellulose disks); type: cell-based; details: 0.85 μg on 6 mm cellulose disk
Method: (§3) To evaluate the antibiotic properties of the compounds produced by the NRPS cluster, Compound #1 or Compound #2 (0.85 μg) was diluted in 2 μl DMSO and soaked onto 6 mm cellulose disks for a bacterial growth inhibition assay.

Bacillus subtilis PY79 = assay: as above; type: cell-based; details: 0.85 μg on 6 mm cellulose disk
Method: as §3

E. coli (ATCC 25922) = assay: as above; type: cell-based; details: 0.85 μg on 6 mm cellulose disk
Method: as §3

E. coli K-12 = assay: as above; type: cell-based; details: 0.85 μg on 6 mm cellulose disk
Method: as §3

[5] = system: Listeria grayi (ATCC 19120); assay: as above; type: cell-based; details: 0.85 μg on 6 mm cellulose disk
Method: as §3

[6] = system: Pseudomonas putida (ATCC 11172); assay: as above; type: cell-based; details: 0.85 μg on 6 mm cellulose disk
Method: as §3

[7] = system: Staphylococcus aureus (ATCC 2913); assay: as above; type: cell-based; details: 0.85 μg on 6 mm cellulose disk
Method: as §3

P. aeruginosa ATCC 27853 = assay: MIC broth dilution assay (Table 2); type: cell-based; details: Pseudomonas aeruginosa, ATCC27853, CAMHB, 16-20 h, 35° C., read-out: Minimum inhibitory concentration (MIC)
Method: (§4) Stocks of test compounds and standards were diluted 1:100 to provide working stocks in each growth medium. For P. aeruginosa, S. enterica and S. aureus, eleven serial, one-half dilutions of the compounds and standards were prepared in 96-well polypropylene dilution blocks in cation-adjusted Mueller Hinton broth (CAMHB). The dilutions were transferred to 96-well assay plates. […] Bacterial suspensions were prepared and added to each well at a concentration of approximately 5×10^5 colony-forming-units per milliliter. The inoculated plates were incubated for 16-20 hours at 35±1° C. At the completion of incubation the wells of each plate were evaluated visually for the presence of bacterial growth. The MIC was the concentration at which there was no growth.

S. enterica ATCC 14028 [8] = assay: MIC broth dilution assay (Table 2); type: cell-based; details: Salmonella enterica, ATCC14028, CAMHB, 16-20 h, 35° C., read-out: Minimum inhibitory concentration (MIC)
Method: as §4

S. pneumoniae ATCC 49619 [9] = assay: MIC broth dilution assay (Table 2); type: cell-based; details: Streptococcus pneumoniae, ATCC49619, CAMHB + LHB, 20-24 h, read-out: Minimum inhibitory concentration (MIC)
Method: as §1

H. influenzae ATCC 49247 [10] = assay: MIC broth dilution assay (Table 2); type: cell-based; details: ATCC49247, Haemophilus Test Medium Broth, 20-24 h, read-out: Minimum inhibitory concentration (MIC)
Method: as §4, with “The inoculated plates were incubated for 16-20 hours at 35±1° C.” left out

A. baumannii ATCC 19606 = assay: MIC of more highly purified compounds (Table 3); type: cell-based
Text: (§5) MIC was further evaluated using EtOAc extracts of more highly purified Compound #1 and Compound #2. MIC of these compounds was compared to ACHN-490 (Plazomicin; an aminoglycoside effective primarily against Gram-negative bacteria), Colistin (a polymyxin antibiotic effective against most Gram-negative bacilli), and Meropenem (an ultra broad-spectrum, beta-lactam antibiotic).

C. difficile ATCC 70057 = assay: MIC of more highly purified compounds (Table 3); type: cell-based; details: Clostridioides difficile, ATCC70057, EtOAc extracts of more highly purified compounds
Text: as §5

H. influenzae ATCC 49247 [11] = assay: MIC of more highly purified compounds (Table 3); type: cell-based; details: Haemophilus influenzae, ATCC49247, EtOAc extracts of more highly purified compounds
Text: as §5

K. pneumoniae ATCC 43816 = assay: MIC of more highly purified compounds (Table 3); type: cell-based
Text: as §5

[12] = system: S. aureus (MRSA) ATCC 33591; assay: MIC of more highly purified compounds (Table 3); type: cell-based; details: EtOAc extracts of more highly purified compounds
Text: as §5

S. enterica ATCC 14028 [13] = assay: MIC of more highly purified compounds (Table 3); type: cell-based
Text: as §5

S. pneumoniae ATCC 49619 [14] = assay: MIC of more highly purified compounds (Table 3); type: cell-based; details: Streptococcus pneumoniae, ATCC49619, EtOAc extracts of more highly purified compounds
Text: as §5

[15] = Acinetobacter baumannii, ATCC19606, EtOAc extracts of more highly purified compounds, read-out: MIC
[16] = Staphylococcus aureus, read-out: MIC
[17] = Salmonella enterica, ATCC14028, EtOAc extracts of more highly purified compounds, read-out: MIC
[18] = EtOAc extracts of more highly purified compounds

Question: With `CN[C@H](CC(C)C)C(=O)N[C@H]1C(=O)N[C@@H](CC(N)=O)C(=O)N[C@H]2C(=O)N[C@H]3C(=O)N[C@H](C(=O)N[C@H](C(=O)O)c4cc(O)cc(O)c4-c4cc3ccc4O)[C@H](O)c3ccc(c(Cl)c3)Oc3cc2cc(c3O[C@@H]2O[C@H](CO)[C@@H](O)[C@H](O)[C@H]2O[C@H]2C[C@](C)(N)[C@H](O)[C@H](C)O2)Oc2ccc(cc2Cl)[C@H]1O` [VAN, vancomycin hydrochloride, reference compound] as the molecule, how does the MIC (C. difficile ATCC 700057; ATCC700057, read-out: Minimum inhibitory concentration (MIC)) read?
Answer: 0.25 µg/mL

Question: With `CCC(C)C1N[C@@H]2OC[C@H](OC(=O)C(CC=O)NC1=O)[C@H](O[C@@H]1OC[C@@H](O)[C@H](O)[C@@H]1O)[C@@H]2O` (stereo partly shown) [Compound #1] as the molecule, how does the water solubility [1] read?
Answer: water insoluble

Question: And the “changes in physical appearance of cell line” value (HeLa cells; 5, 25, 50 nM)?
Answer: no changes in physical appearance

Question: And the pyrogenic reactions (HeLa cells; 5, 25, 50 nM)?
Answer: No pyrogenic reactions

Question: And the “variation of death rates, treated vs untreated cell cultures” value (HeLa cells; 5, 25, 50 nM, cell counts on days two, four and six)?
Answer: less than 5%

Question: And the proliferation rate (HeLa cells; T10 (50 nM))?
Answer: slightly reduced

Question: What about the “changes in physical appearance of cell line” value [2] of the same molecule?
Answer: no changes in physical appearance

Question: And the pyrogenic reactions [2]?
Answer: No pyrogenic reactions

Question: And the “variation of death rates, treated vs untreated cell cultures” value ([2]; cell counts on days two, four and six)?
Answer: less than 5%

Question: What about the “signs of illness (MTD study)” value [3] of the same molecule?
Answer: No signs of illness

Question: And the bacterial growth inhibition [4]?
Answer: significantly inhibited bacterial growth

Question: And the bacterial growth inhibition (Bacillus subtilis PY79)?
Answer: significantly inhibited bacterial growth

Question: And the bacterial growth inhibition (E. coli (ATCC 25922))?
Answer: significantly inhibited bacterial growth

Question: And the bacterial growth inhibition (E. coli K-12)?
Answer: significantly inhibited bacterial growth

Question: What about the bacterial growth inhibition [5] of the same molecule?
Answer: significantly inhibited bacterial growth

Question: And the bacterial growth inhibition [6]?
Answer: significantly inhibited bacterial growth

Question: What about the bacterial growth inhibition [7] of the same molecule?
Answer: significantly inhibited bacterial growth

Question: And the MIC (P. aeruginosa ATCC 27853)?
Answer: > 128 µg/mL

Question: What about the MIC (S. enterica ATCC 14028 [8]) of the same molecule?
Answer: > 128 µg/mL

Question: And the MIC (S. pneumoniae ATCC 49619 [9])?
Answer: 64 µg/mL

Question: What about the MIC (H. influenzae ATCC 49247 [10]) of the same molecule?
Answer: 2 µg/mL (≈ 4.2 µM)

Question: And the MIC (C. difficile ATCC 700057; ATCC700057, C. difficile ATCC 700057, Supplemented Brucella Broth + LHB, anaerobic, 46-48 h, read-out: Minimum inhibitory concentration (MIC))?
Answer: 32 µg/mL

Question: And the MIC (A. baumannii ATCC 19606; [15])?
Answer: 8 µg/mL

Question: And the MIC (C. difficile ATCC 70057)?
Answer: 16 µg/mL

Question: What about the MIC (H. influenzae ATCC 49247 [11]) of the same molecule?
Answer: 0.5 µg/mL

Question: And the MIC (K. pneumoniae ATCC 43816; Klebsiella pneumoniae, ATCC43816, EtOAc extracts of more highly purified compounds, read-out: MIC)?
Answer: 8 µg/mL

Question: What about the MIC [12, 16] of the same molecule?
Answer: 16 µg/mL

Question: What about the MIC (S. enterica ATCC 14028 [13]; [17]) of the same molecule?
Answer: 16 µg/mL

Question: And the MIC (S. pneumoniae ATCC 49619 [14])?
Answer: 16 µg/mL

Question: For Colistin, which MIC (A. baumannii ATCC 19606; [18]) is on record?
Answer: >32 µg/mL

Question: What about the MIC (K. pneumoniae ATCC 43816; [18]) of the same molecule?
Answer: 0.12 µg/mL

Question: What about the MIC [12] of the same molecule?
Answer: 32 µg/mL

Question: And the MIC (S. enterica ATCC 14028 [13]; [18])?
Answer: >32 µg/mL

Question: Which MIC (A. baumannii ATCC 19606; [15]) does the source give for `CN[C@@H]1[C@@H](O)[C@@H](O[C@@H]2[C@@H](O)[C@H](O[C@H]3OC(CNCCO)=CC[C@H]3N)[C@@H](N)C[C@H]2NC(=O)[C@@H](O)CCN)OC[C@]1(C)O` [ACHN-490, Plazomicin] here?
Answer: 8 µg/mL

Question: What does the source list for `C[C@@H](O)[C@H]1C(=O)N2C(C(=O)O)=C(S[C@@H]3CN[C@H](C(=O)N(C)C)C3)[C@H](C)[C@H]12` [Meropenem]?
Answer: MIC (A. baumannii ATCC 19606; [15]): 1 µg/mL; MIC [12, 16]: > 16 µg/mL; MIC (S. enterica ATCC 14028 [13]; [17]): > 16 µg/mL
